This is an account of results in US8524717B2, “Oxidase inhibitors and their use” (Oryzon Genomics, S.A., priority 2008, dated 2013).

Structures are written as SMILES. Where only a bound is given, the exact number is not on record here.

One assay addresses MAO-A (Homo sapiens (Human), UniProt P21397). Briefly: Monoamine oxidase assay (kynuramine to 4-hydroxyquinoline fluorescence), MAO-A. The format is biochemical. As to conditions: for Ki: Table 1. The procedure: (§1) Human recombinant monoamine oxidase proteins MAO-A and MAO-B were purchased from Sigma Aldrich. MOAs catalyze the oxidative deamination of 1°, 2° and 3° amines. In order to monitor MAO enzymatic activities and/or their inhibition rate by inhibitor(s) of interest, a fluorescent-based (inhibitor)-screening assay was set up. 3-(2-Aminophenyl)-3-oxopropamamine (kynuramine dihydrobromide, Sigma Aldrich), a non fluorescent compound was chosen as a substrate. Kynuramine is a non-specific substrate for both MAOs activities. While undergoing oxidative deamination by MAO activities, kynuramine is converted into 4-hydroxyquinoline (4-HQ), a resulting fluorescent product.
(§2) The monoamine oxidase activity was estimated by measuring the conversion of kynuramine into 4-hydroxyquinoline. Assays were conducted in 96-well black plates with clear bottom (Corning) in a final volume of 100 μL. The assay buffer was 100 mM HEPES, pH 7.5. Each experiment was performed in triplicate within the same experiment.
(§3) The oxidative deamination of the substrate was stopped by adding 50 μL (v/v) of NaOH 2N.
(§4) The Ki of each inhibitor was measure at Vmax/2.

In another assay the target is MAO-B (Homo sapiens (Human), UniProt P27338). Nature of the assay: Monoamine oxidase assay (kynuramine to 4-hydroxyquinoline fluorescence), MAO-B. As to conditions: Table 1. The format is biochemical. The procedure: as §1, §2, §3, §4
The target of assay [1] is Human recombinant LSD1 protein (Homo sapiens (Human), UniProt O60341). Nature of the assay: LSD1 demethylase inhibition assay (Amplex Red peroxide/peroxidase-coupled, di-methylated H3-K4 peptide). As to conditions: for ability to inhibit LSD1: preliminary assays, result in words; for LSD1 percent at fixed concentration: at 20 μM.
Procedure: The demethylase activity was estimated, under aerobic conditions, by measuring the release of H2O2 produced during the catalytic process, using the Amplex® Red peroxide/peroxidase-coupled assay kit (Invitrogen).
Tranylcypromine (Biomol International) was used as a control for inhibition. Within the experiment, each concentration of inhibitor was tested in triplicate. […] The enzymatic reactions were set up in a 50 mM sodium phosphate, pH 7.4 buffer. […] A 1 μM H2O2 solution was used as a control of the kit efficiency. The conversion of the Amplex® Red reagent to resorufin due to the presence of H2O2 in the assay, was monitored by fluorescence (excitation at 540 nm, emission at 590 nm) using a microplate reader (Infinite 200, Tecan). Arbitrary units were used to measure level of H2O2 produced in the absence and/or in the presence of inhibitor.
The Ki of each inhibitor was estimated at half of the maximum activity.

A word on the Ki: it is the dissociation constant of the complex between target and ligand, obtained from inhibition or displacement.

MAO-A, sequence (P21397 whole entry): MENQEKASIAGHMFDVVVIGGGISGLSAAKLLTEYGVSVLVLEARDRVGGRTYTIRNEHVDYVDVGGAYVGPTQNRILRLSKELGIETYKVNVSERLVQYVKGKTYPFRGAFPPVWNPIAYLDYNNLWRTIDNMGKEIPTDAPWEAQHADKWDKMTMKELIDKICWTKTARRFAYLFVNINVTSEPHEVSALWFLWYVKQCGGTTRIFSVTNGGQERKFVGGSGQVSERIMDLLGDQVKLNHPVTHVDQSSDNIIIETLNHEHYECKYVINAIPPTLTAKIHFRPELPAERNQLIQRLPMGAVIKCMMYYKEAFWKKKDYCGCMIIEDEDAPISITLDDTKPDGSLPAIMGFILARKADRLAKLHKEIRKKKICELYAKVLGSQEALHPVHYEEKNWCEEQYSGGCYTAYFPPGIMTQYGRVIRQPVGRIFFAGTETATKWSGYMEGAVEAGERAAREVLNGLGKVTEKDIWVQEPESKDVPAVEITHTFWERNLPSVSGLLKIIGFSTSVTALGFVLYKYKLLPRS
MAO-B, sequence (P27338 whole entry): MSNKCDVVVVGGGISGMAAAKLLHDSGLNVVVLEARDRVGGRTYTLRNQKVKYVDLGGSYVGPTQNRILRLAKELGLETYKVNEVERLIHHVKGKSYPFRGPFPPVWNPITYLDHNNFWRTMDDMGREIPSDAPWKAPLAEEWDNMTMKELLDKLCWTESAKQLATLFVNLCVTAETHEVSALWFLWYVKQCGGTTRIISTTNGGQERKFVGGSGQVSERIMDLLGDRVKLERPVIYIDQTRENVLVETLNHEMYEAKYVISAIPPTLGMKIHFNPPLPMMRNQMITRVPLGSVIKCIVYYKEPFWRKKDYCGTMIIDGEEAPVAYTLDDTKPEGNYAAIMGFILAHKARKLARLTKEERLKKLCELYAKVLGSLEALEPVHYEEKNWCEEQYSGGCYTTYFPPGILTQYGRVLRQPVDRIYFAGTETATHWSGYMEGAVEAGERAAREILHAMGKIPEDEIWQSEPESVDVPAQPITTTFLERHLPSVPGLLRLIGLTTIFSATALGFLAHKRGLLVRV

For `CN(C)CCNC(=O)CN[C@H]1C[C@@H]1c1ccccc1` (relative stereo) [Example 13, N-(2-(dimethylamino)ethyl)-2-((trans)-2-phenylcyclopropylamino)acetamide], the Ki on MAO-A and on MAO-B was more than 40 µM each time.
Turning to `CN1CCN(C(=O)CN[C@H]2C[C@@H]2c2ccc(OCc3ccccc3)cc2)CC1` (relative stereo) [Example 26, 2-((trans)-2-(4-(benzyloxy)phenyl)cyclopropylamino)-1-(4-methylpiperazin-1-yl)ethanone], on MAO-A, the “IC50 value for MAO-A” value is on record as “low micromolar range” and the Ki is 11 µM.
For the molecule `CC(C)(C)NC(=O)CN(Cc1ccccc1)[C@H]1C[C@@H]1c1ccccc1` (relative stereo) [Example 21, 2-(benzyl((trans)-2-phenylcyclopropyl)amino)-N-tert-butylacetamide], in assay [1], the Ki is more than 100 µM and the “ability to inhibit LSD1” value was “did not inhibit LSD1”.
In the case of `CN(CC(N)=O)[C@H]1C[C@@H]1c1ccccc1` (relative stereo) [Example 20, 2-{methyl[(trans)-2-phenylcyclopropyl]amino}acetamide], the Ki at MAO-A and at MAO-B was more than 100 µM throughout. Besides, the “LSD1 percent at fixed concentration” value in assay [1] was found to be 40% at 20.
In the case of `O=C(CN[C@H]1C[C@@H]1c1ccccc1)Nc1ccc(F)cc1` (relative stereo) [Example 8, N-(4-fluorophenyl)-2-{[(trans)-2-phenylcyclopropyl]amino}acetamide], the Ki (on MAO-A; at MAO-B; in assay [1]) was more than 50 µM throughout. Further, the “ability to inhibit LSD1” value in assay [1] is “did not inhibit LSD1”.
For the molecule `CN(CC(=O)NC1CC1)[C@H]1C[C@@H]1c1ccccc1` (relative stereo) [Example 19, N-cyclopropyl-2-{methyl[(trans)-2-phenylcyclopropyl]amino}acetamide], the Ki was 74 µM at MAO-A and more than 100 µM on MAO-B. In assay [1], the “LSD1 percent at fixed concentration” value stood at 34% at 20.
